In BindingDB's records for doi:10.1021/np049624z (Harvard Medical School, 2005):

Target: Forkhead box protein O1 (Homo sapiens, UniProt Q12778)
Assay: Inhibition of FOXO1a nuclear export in PTEN-deficient cells

Forkhead box protein O1, sequence (Q12778 whole entry): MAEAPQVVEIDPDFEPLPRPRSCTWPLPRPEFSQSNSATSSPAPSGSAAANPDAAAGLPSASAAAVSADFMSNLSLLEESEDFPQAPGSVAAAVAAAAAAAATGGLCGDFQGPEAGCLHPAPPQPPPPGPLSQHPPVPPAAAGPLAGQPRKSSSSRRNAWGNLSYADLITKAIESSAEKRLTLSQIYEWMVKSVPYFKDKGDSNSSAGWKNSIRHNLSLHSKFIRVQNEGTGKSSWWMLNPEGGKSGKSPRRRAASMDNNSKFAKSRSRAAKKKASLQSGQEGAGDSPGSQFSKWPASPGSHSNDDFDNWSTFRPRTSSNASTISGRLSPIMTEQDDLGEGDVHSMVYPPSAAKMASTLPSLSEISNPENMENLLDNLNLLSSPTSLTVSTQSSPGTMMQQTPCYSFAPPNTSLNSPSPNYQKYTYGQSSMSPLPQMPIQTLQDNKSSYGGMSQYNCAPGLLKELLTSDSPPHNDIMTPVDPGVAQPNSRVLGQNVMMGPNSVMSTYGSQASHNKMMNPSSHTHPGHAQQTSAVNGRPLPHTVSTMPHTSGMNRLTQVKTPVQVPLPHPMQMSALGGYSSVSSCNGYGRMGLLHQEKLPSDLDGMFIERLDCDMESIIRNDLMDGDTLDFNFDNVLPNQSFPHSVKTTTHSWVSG

IC50 [µM]	Structure (SMILES)
5	CN(C)CCCOc1c(Br)cc(/C=C/C(=O)NCCCOc2c(Br)cc(CCN(C)C)cc2Br)cc1Br [psammaplysene A]
20	CNCCCOc1c(Br)cc(/C=C/C(=O)NCCCOc2c(Br)cc(CCN(C)C)cc2Br)cc1Br [psammaplysene B]
